Reference: patent US9271978B2 (Zenith Epigenetics Corp., priority 2012, dated 2016)

How the values were obtained:
[1] = target: T1, Brd4 bromodomain 1 (BRD4(1)) (Homo sapiens, UniProt O60885); test: Inhibition of tetra-acetylated histone H4 binding to Brd4 bromodomain 1 (TR-FRET); design: key: Active: Compounds with an IC50 value less than 30 μM were deemed to be active.; Not Active: Compounds with an IC50 value less than 30 μM were deemed to be active; conditions: tetra-acetylated histone H4 peptide, active = IC50 <30 μM
T1 construct: Illustrative results with the first bromodomain of Brd4; made in house; host or cells: E. coli BL21 (DE3)
In short: (§1)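 IC50 values come from dose-response curves of the 665 nm to 620 nm TR-FRET signal decrease, measured after 2 h at room temperature. Reactions contained 200 nM E. coli-expressed His-tagged bromodomain, 25-50 nM biotinylated tetra-acetylated H4 peptide, Eu-streptavidin plus XL665 anti-His antibody, with 30 mM HEPES pH 7.4, 320 mM KF and 0.2% DMSO.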

[2] = target: T2, second bromodomain of Brd2 (BRD2(2)) (Homo sapiens, UniProt P25440); test: Inhibition of tetra-acetylated histone H4 binding to Brd2 bromodomain 2 (TR-FRET); design: key: Active: Compounds with an IC50 value less than 30 μM were deemed to be active.; Not Active: Compounds with an IC50 value less than 30 μM were deemed to be active; conditions: tetra-acetylated histone H4 peptide, active = IC50 <30 μM
T2 construct: made in house; host or cells: E. coli BL21 (DE3)
In short: as §1

ApoA-I mRNA = test: Up-regulation of hApoA-1 mRNA transcription in Huh7 cells; type: cell-based, human; design: key: Active: Compounds with an EC170 value less than 30 μM were deemed to be active; conditions: 48 h treatment, ApoA-I mRNA by real-time PCR, Active = EC170 less than 30 μM
Procedure: In this example, ApoA-I mRNA in tissue culture cells was quantitated to measure the transcriptional up-regulation of ApoA-I when treated with a compound of the present disclosure.
Huh7 cells (2.5×10^5 per well) were plated in a 96-well plate using 100 μL DMEM per well, (Gibco DMEM supplemented with penicillin/streptomycin and 10% FBS), 24 h before the addition of the compound of interest. After 48 h treatment, the spent media was removed from the Huh-7 cells and placed on ice (for immediate use) or at −80° C. (for future use) with the “LDH cytotoxicity assay Kit II” from Abcam. The cells remaining in the plate were rinsed with 100 μL PBS.
Then 85 μL of cell lysis solution was added to each well and incubated for 5-10 min at room temperature, to allow for complete cell lysis and detachment. mRNA was then prepared using the “mRNA Catcher PLUS plate” from Life Technologies, according to the protocol supplied. After the last wash, as much wash buffer as possible was aspirated without allowing the wells to dry. Elution Buffer (E3, 80 μL) was then added to each well. mRNA was then eluted by incubating the mRNA Catcher PLUS plate with Elution Buffer for 5 min at 68° C., and then 1 min at 4° C. Catcher plates with mRNA eluted were kept on ice for use or stored at −80° C.
The eluted mRNA isolated was then used in a one-step real-time PCR reaction, using components of the Ultra Sense Kit together with Life Technologies primer-probe mixes. Real-time PCR data was analyzed, using the Ct values, to determine the fold induction of each unknown sample, relative to the control (that is, relative to the control for each independent DMSO concentration).
Compounds with an EC170 value less than 30 μM were deemed to be active.

hIL-6 mRNA = test: Inhibition of hIL-6 mRNA transcription in U937 cells; type: cell-based, human; design: key: Active: Compounds with an IC50 value less than 30 μM were deemed to be active.; Not Active: Compounds with an IC50 value less than 30 μM were deemed to be active; conditions: LPS stimulation, active = IC50 <30 μM
In short: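 Readout is one-step real-time PCR of hIL-6 mRNA, normalized to an internal control and given as fold induction versus control. Cells: PMA (60 ng/mL, 3 days)-differentiated U937 macrophages, compound added 1 h before 1 ug/mL LPS, harvested after 3 h at 37° C.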

[3] = tested on: human AML MV-4-11 (CRL-9591) cells; test: Inhibition of cell proliferation in MV4-11 cells; type: cell-based; design: key: Active: Compounds with an IC50 value less than 30 μM were deemed to be active.; Not Active: Compounds with an IC50 value less than 30 μM were deemed to be active; conditions: human AML MV-4-11 cells, 72 h; active = IC50 <30 μM
In short: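 IC50 values come from blank-corrected proliferation relative to DMSO controls, read as 490 nm absorbance 3–4 h after CellTiter Aqueous One addition. Before that, cells seeded at 5×10^4/well were exposed for 72 h (37° C, 5% CO2) to triplicate two-fold compound dilutions spanning 30–0.2 μM.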

c-myc = test: Inhibition of c-myc expression in MV4-11 cells (mRNA, real-time PCR); type: cell-based; design: key: Active: Compounds with an IC50 value less than 30 μM were deemed to be active.; Not Active: Compounds with an IC50 value less than 30 μM were deemed to be active; conditions: Human AML MV4-11 cells, 3 h incubation
In short: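 Duplex RT-qPCR of c-myc against cyclophilin cDNA gave IC50 from a dose–response curve. Input was isolated mRNA from 2.5×10^4 MV4-11 cells after 3 h exposure at 37 °C to compound or 0.1% DMSO vehicle.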

T2 sequence (P25440 344-453 limits assumed): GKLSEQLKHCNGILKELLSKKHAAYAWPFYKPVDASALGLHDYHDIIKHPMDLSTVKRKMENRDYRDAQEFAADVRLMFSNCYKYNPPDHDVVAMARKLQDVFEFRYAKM

SMILES	FRET activity (IC50 <30 μM) BRD4(1) [1]	FRET activity (IC50 <30 μM) BRD2(2) [2]	ApoA-1 activity (EC170 <30 μM) (ApoA-I mRNA)	IL-6 activity (IC50 <30 μM) (hIL-6 mRNA)	Cell Proliferation activity (IC50 <30 μM) [3]	c-myc activity (IC50 <30 μM) (c-myc)
Cc1noc(C)c1-c1ccc(=O)n([C@H](C)c2ccc(F)cc2)c1 (single isomer, unassigned) [Example 111]	Active	Active	Active	Active	–	–
Cc1noc(C)c1-c1cn(Cc2ccccc2)c(=O)cn1 [Example 6, 1-Benzyl-5-(3,5-dimethylisoxazol-4-yl)pyrazin-2(1H)-one]	Active	Active	Active	Active	Active	–
Cc1noc(C)c1-c1ccc(=O)n(Cc2ccc(C(F)(F)F)cc2)c1 [Example 7, 5-(3,5-Dimethylisoxazol-4-yl)-1-(4-(trifluoromethyl)benzyl)pyridin-2(1H)-one]	Active	Active	Active	Active	Active	–
COc1cc(-c2ccc(=O)n(Cc3ccc(C#N)cc3)n2)cc(OC)c1OC [Example 16, 4-((6-Oxo-3-(3,4,5-trimethoxyphenyl)pyridazin-1(6H)-yl)methyl)benzonitrile]	Active	Active	Active	–	–	Not Active
Cc1noc(C)c1-c1ccc(=O)n(C(C)c2ccccn2)c1 (centres unmarked) [Example 112, 5-(3,5-Dimethylisoxazol-4-yl)-1-(1-(pyridin-2-yl)ethyl)pyridin-2(1H)-one]	Active	Active	Active	Not Active	–	–
Cc1noc(C)c1-c1ccc(=O)n(Cc2ccccc2Cl)c1 [Example 127, 1-(2-Chlorobenzyl)-5-(3,5-dimethylisoxazol-4-yl)pyridin-2(1H)-one]	Active	Active	–	Active	Active	Active
Cc1noc(C)c1-c1ccc(=O)n([C@@H](C)c2ccccc2)c1 [Example 133, (S)-5-(3,5-Dimethylisoxazol-4-yl)-1-(1-phenylethyl)pyridin-2(1H)-one]	Active	Active	–	Not Active	Not Active	Active
Cc1noc(C)c1-c1ccc(=O)n(Cc2ccc(Cl)cc2Cl)c1 [Example 136, 1-(2,4-Dichlorobenzyl)-5-(3,5-dimethylisoxazol-4-yl)pyridin-2(1H)-one]	Active	Active	–	Active	Active	Active
Cc1noc(C)c1-c1ccc(=O)n(Cc2ccc(C#N)cc2)c1 [Example 137, 4-((5-(3,5-Dimethylisoxazol-4-yl)-2-oxopyridin-1(2H)-yl)methyl)benzonitrile]	Active	Active	–	Active	Active	Active
Cc1noc(C)c1-c1ccc(=O)n(Cc2cc(F)c(F)c(F)c2)c1 [Example 142, 5-(3,5-Dimethylisoxazol-4-yl)-1-(3,4,5-trifluorobenzyl)pyridin-2(1H)-one]	Active	Active	–	Active	Active	Active
Cc1onc(N)c1-c1ccc(=O)n(Cc2ccccc2)c1 [Example 151, 5-(3-Amino-5-methylisoxazol-4-yl)-1-benzylpyridin-2(1H)-one]	Active	Active	–	Active	Active	Not Active
Cc1noc(C)c1-c1ccc(=O)n(Cc2ccc(Cl)c(Cl)c2)c1 [Example 155, 1-(3,4-Dichlorobenzyl)-5-(3,5-dimethylisoxazol-4-yl)pyridin-2(1H)-one]	Active	–	Active	–	–	–
Cc1noc(C)c1-c1cc(Nc2cccc(F)c2)c(=O)n(Cc2ccccc2)c1 [Example 157, 1-Benzyl-5-(3,5-dimethylisoxazol-4-yl)-3-((3-fluorophenyl)amino)pyridin-2(1H)-one]	Active	–	Active	–	–	–
Cc1onc(CO)c1-c1ccc(=O)n(Cc2ccccc2)c1 [Example 158, 1-Benzyl-5-(3-(hydroxymethyl)-5-methylisoxazol-4-yl)pyridin-2(1H)-one]	Active	–	Active	–	–	–
Cc1nscc1-c1ccc(=O)n(Cc2ccccc2)c1 [Example 160, 1-Benzyl-5-(3-methylisothiazol-4-yl)pyridin-2(1H)-one]	Active	–	Active	–	–	–
COc1ccc(-c2nn(Cc3ccccc3)c(=O)c3ccccc23)c(O)c1OC [Example 164, 2-Benzyl-4-(2-hydroxy-3,4-dimethoxyphenyl)phthalazin-1(2H)-one]	Active	Active	–	Not Active	Active	Not Active
Cc1noc(CO)c1-c1ccc(=O)n(Cc2ccccc2)c1 [Example 214, 1-benzyl-5-(5-(hydroxymethyl)-3-methylisoxazol-4-yl)pyridin-2(1H)-one]	Active	–	Active	Active	–	–
Cc1noc(C)c1Nc1cc(-c2c(C)noc2C)cn(Cc2ccccc2)c1=O [Example 217, 1-benzyl-5-(3,5-dimethylisoxazol-4-yl)-3-((3,5-dimethylisoxazol-4-yl)amino)pyridin-2(1H)-one]	Active	–	Active	Not Active	–	–
C=Cc1ccc(Cn2cc(-c3c(C)noc3C)ccc2=O)cc1 [Example 218, 5-(3,5-Dimethylisoxazol-4-yl)-1-(4-vinylbenzyl)pyridin-2(1H)-one]	Active	–	Active	Active	–	–
